Where two headings read alike, the source gives them in different places.
System: PANC-1 cells
Assay: cell viability assay in PANC-1 cells (compound alone, + 100 ng/ml TNFa, + 300 ng/ml TRAIL)
Format: cell-based
[1] = Homo sapiens, PANC-1, compound alone, Tables 6-10, read-out: IC50 (μM) in cell viability assay in PANC-1 cells: Compound alone
[2] = with 100 ng/ml TNFa, Tables 6-10, read-out: IC50 (μM) in cell viability assay in PANC-1 cells: Compound + 100 ng/ml TNFa
[3] = with 300 ng/ml TRAIL, Tables 6-10, read-out: IC50 (μM) in cell viability assay in PANC-1 cells: Compound + 300 ng/ml TRAIL
[4] = Homo sapiens, PANC-1, compound alone, Tables 15-18, read-out: IC50 (uM) in cell viability assay in PANC-1 cells: Cmpnd alone
[5] = with 100 ng/ml TNFa, Tables 15-18, read-out: IC50 (uM) in cell viability assay in PANC-1 cells: Cmpnd + 100 ng/ml TNFa
[6] = with 300 ng/ml TRAIL, Tables 15-18, read-out: IC50 (uM) in cell viability assay in PANC-1 cells: Cmpnd + 300 ng/ml TRAIL
[7] = PANC-1 cells, + 100 ng/ml TNFa, read-out: IC50 (uM) in cell viability assay in PANC-1 cells, Cmpnd + 100 ng/ml TNFa
[8] = PANC-1 cells, + 300 ng/ml TRAIL, read-out: IC50 (uM) in cell viability assay in PANC-1 cells, Cmpnd + 300 ng/ml TRAIL

IC50 [1] [µM] | IC50 [2] [µM] | IC50 [3] [µM] | Compound | other results
> 1 | 0.62 | 0.6 | CN[C@@H](C)C(=O)N[C@H]1CCN(C(=O)c2ccc(C(=O)N[C@H]3C[C@@H](C(=O)N[C@@H]4CCCc5ccccc54)N(C(=O)[C@@H](NC(=O)[C@H](C)NC)C(C)(C)C)C3)cc2)C1 [Compound 187] | 
> 1 | 0.679 | 0.674 | CN[C@@H](C)C(=O)NC(C(=O)N[C@@H](CCC(=O)NCc1cn([C@H]2C[C@@H](C(=O)N[C@@H]3CCCc4ccccc43)N(C(=O)[C@@H](NC(=O)[C@H](C)NC)C(C)(C)C)C2)nn1)C(=O)N[C@H](C)C(C)C)C(C)C (stereo partly drawn) [Compound 202] | 
> 1 | > 1 | > 1 | CN[C@@H](C)C(=O)N[C@H](C(=O)N1CCC[C@H]1Cn1cnnc1CCc1ccccc1)[C@@H](C)OCC#CC#CCO[C@H](C)[C@H](NC(=O)[C@H](C)NC)C(=O)N1CCC[C@H]1Cn1cnnc1CCc1ccccc1 [Compound 85] | 
> 1 | > 1 | > 1 | CN[C@@H](C)C(=O)N[C@H](C(=O)N1CCC[C@H]1CN1C(=O)OC[C@@H]1Cc1ccccc1)[C@@H](C)OCCCCCCO[C@H](C)[C@H](NC(=O)[C@H](C)NC)C(=O)N1CCC[C@H]1CN1C(=O)OC[C@@H]1Cc1ccccc1 [Compound 84] | 
> 1 | 0.054 | 0.089 | CN[C@@H](C)C(=O)N[C@@H](C)C(=O)N[C@@H](CCNC(=O)c1cccc(C(=O)N[C@H]2C[C@@H](C(=O)N[C@@H]3CCCc4ccccc43)N(C(=O)[C@@H](NC(=O)[C@H](C)NC)C(C)(C)C)C2)c1)C(=O)N[C@H](C)c1ccccc1 [Compound 178] | 
> 1 | 0.155 | 0.196 | CN[C@@H](C)C(=O)N[C@H](C(=O)N1CCC[C@H]1CN1CCC[C@H]1C(c1ccccc1)c1ccccc1)[C@@H](C)OCC#CC#CCO[C@H](C)[C@H](NC(=O)[C@H](C)NC)C(=O)N1CCC[C@H]1CN1CCC[C@H]1C(c1ccccc1)c1ccccc1 [Compound 81] | 
> 1 | 0.494 | 0.437 | CN[C@@H](C)C(=O)N[C@H](C(=O)N1CCC[C@H]1CN1CCC[C@H]1C(c1ccccc1)c1ccccc1)[C@@H](C)OCCCCCCO[C@H](C)[C@H](NC(=O)[C@H](C)NC)C(=O)N1CCC[C@H]1CN1CCC[C@H]1C(c1ccccc1)c1ccccc1 [Compound 83] | 
> 1 | > 1 | > 1 | CN[C@@H](C)C(=O)Nc1nc(CC(=O)NCCCC[C@H](NC(=O)[C@H](C)NC)C(=O)N2CCC[C@H]2C(=O)N[C@@H]2CCCc3ccccc32)cs1 [Compound 189] | 
> 1 | 0.014 | 0.049 | CN[C@@H](C)C(=O)N[C@@H](CCCCCC[C@H](NC(=O)[C@H](C)NC)C(=O)N1CCCC[C@H]1C(=O)N[C@@H]1CCCc2ccccc21)C(=O)N1CCCC[C@H]1C(=O)N[C@@H]1CCCc2ccccc21 [Compound 94] | 
> 1 | 0.01 | 0.028 | CN[C@@H](C)C(=O)N[C@H](C(=O)N[C@@H](CCNC(=O)c1cccc(C(=O)N[C@H]2C[C@@H](C(=O)N[C@@H]3CCCc4ccccc43)N(C(=O)[C@@H](NC(=O)[C@H](C)NC)C(C)(C)C)C2)c1)C(=O)N[C@@H]1CCCc2ccccc21)C(C)(C)C [Compound 169] | 
 |  |  | CN[C@@H](C)C(=O)N[C@@H](CCNC(=O)c1ccc(-c2ccc(C(=O)NCC[C@H](NC(=O)[C@H](C)NC)C(=O)N3CCC[C@H]3C(=O)N[C@@H]3CCCc4ccccc43)cc2)cc1)C(=O)N1CCC[C@H]1C(=O)N[C@@H]1CCCc2ccccc21 [Compound P2-50] | IC50 [4]: > 1 µM; IC50 [5]: 0.067 µM; IC50 [6]: 0.019 µM
> 1 | 0.035 | 0.05 | CC[C@H](NC(=O)[C@H](C)NC)C(=O)N[C@@H](CCNC(=O)c1cccc(C(=O)N[C@H]2C[C@@H](C(=O)N[C@@H]3CCCc4ccccc43)N(C(=O)[C@@H](NC(=O)[C@H](C)NC)C(C)(C)C)C2)c1)C(=O)N[C@H](C)c1ccccc1 [Compound 177] | 
 |  |  | CN[C@@H](C)C(=O)N[C@@H](CCCCNC(=O)c1cccc(C(=O)NCCCC[C@H](NC(=O)[C@H](C)NC)C(=O)N2CCC[C@H]2Cn2nnnc2Sc2ccccc2)c1)C(=O)N1CCC[C@H]1Cn1nnnc1Sc1ccccc1 [Compound P2-48] | IC50 [4]: > 1 µM; IC50 [5]: 0.263 µM; IC50 [6]: 0.398 µM
 |  |  | CN[C@@H](C)C(=O)N[C@H](C(=O)N1C[C@@H](NC(=O)C2CCCC(C(=O)N[C@H]3C[C@@H](C(=O)N[C@H](C)c4ccccc4)N(C(=O)[C@@H](NC(=O)[C@H](C)NC)C(C)(C)C)C3)C2)C[C@H]1C(=O)N[C@H](C)c1ccccc1)C(C)(C)C (stereo partly drawn) [Compound P3-102] | IC50 [7]: 0.017 µM; IC50 [8]: 0.023 µM; IC50 (PANC-1 cells, compound alone, read-out: IC50 (uM) in cell viability assay in PANC-1 cells, Cmpnd alone): > 1 µM
 |  |  | CN[C@@H](C)C(=O)N[C@@H](CCC(=O)Nc1ccc(C#Cc2ccc(NC(=O)CC[C@H](NC(=O)[C@H](C)NC)C(=O)N3CCC[C@H]3C(=O)N[C@@H]3CCCc4ccccc43)cc2)cc1)C(=O)N1CCC[C@H]1C(=O)N[C@@H]1CCCc2ccccc21 [Compound P3-98] | IC50 (Homo sapiens, PANC-1 cells, compound alone, read-out: IC50 (uM) in cell viability assay in PANC-1 cells, Cmpnd alone): > 1 µM; IC50 [7]: 0.01 µM; IC50 [8]: 0.012 µM
 |  |  | CN[C@@H](C)C(=O)N[C@H](C(=O)N1CCC[C@H]1c1nc(C(=O)NCCCCCCCCNC(=O)c2nc([C@@H]3CCCN3C(=O)[C@@H](NC(=O)[C@H](C)NC)C(C)(C)C)oc2-c2c[nH]c3ccccc23)c(-c2c[nH]c3ccccc23)o1)C(C)(C)C [Compound P4-26] | IC50 [4]: > 1 µM; IC50 [5]: 0.0007 µM; IC50 [6]: 0.0007 µM
 |  |  | CN[C@@H](C)C(=O)N[C@@H](CC(=O)NCC#CC#CCNC(=O)C[C@H](NC(=O)[C@H](C)NC)C(=O)N1CCC[C@H]1C(=O)N[C@@H]1CCCc2ccccc21)C(=O)N1CCC[C@H]1C(=O)N[C@@H]1CCCc2ccccc21 [Compound P2-41] | IC50 [4]: > 1 µM; IC50 [5]: 0.094 µM; IC50 [6]: 0.092 µM
 |  |  | CN[C@@H](C)C(=O)N[C@H](C(=O)N1CCCC1C(=O)N[C@H](COCC#CC#CCOC[C@@H](NC(=O)[C@H](C)NC(=O)[C@H](NC(=O)[C@@H](CO)NC)C1CCCCC1)C(C)C)C1CCCCC1)C(C)(C)C (stereo partly drawn) [Compound H-8] | IC50 [4]: > 1 µM; IC50 [5]: 0.017 µM; IC50 [6]: 0.033 µM
> 1 | 0.046 | 0.052 | CCC1(NC(=O)[C@@H]2C[C@H](NC(=O)c3cc(C(=O)N[C@H]4C[C@@H](C(=O)NC5(CC)CCCc6ccccc65)N(C(=O)[C@@H](NC(=O)[C@H](C)NC)C(C)(C)C)C4)[nH]n3)CN2C(=O)[C@@H](NC(=O)[C@H](C)NC)C(C)(C)C)CCCc2ccccc21 (stereo partly drawn) [Compound 52] | 

Compound | IC50 [1] [µM] | IC50 [2] [µM] | IC50 [3] [µM] | other results
CN[C@@H](C)C(=O)N[C@H](C(=O)N[C@@H](CCNC(=O)c1cc(N)cc(C(=O)N[C@H]2C[C@@H](C(=O)N[C@@H]3CCCc4ccccc43)N(C(=O)[C@@H](NC(=O)[C@H](C)NC)C(C)(C)C)C2)c1)C(=O)N[C@H](C)C(C)C)C(C)C [Compound 180] | > 1 | 0.124 | 0.201 | 
CCCC[C@@H](C)NC(=O)c1cc(C(=O)N[C@H]2C[C@@H](C(=O)N[C@@H]3CCCc4ccccc43)N(C(=O)[C@@H](NC(=O)[C@H](C)NC)C(C)(C)C)C2)cc(C(=O)N[C@H]2C[C@@H](C(=O)N[C@@H]3CCCc4ccccc43)N(C(=O)[C@@H](NC(=O)[C@H](C)NC)C(C)(C)C)C2)c1 [Compound 129] |  | 0.006 | 0.004 | IC50 (compound alone, Tables 6-10, read-out: IC50 (μM) in cell viability assay in PANC-1 cells: Compound alone): > 1 µM
CN[C@@H](C)C(=O)N[C@@H](CCCCCC[C@H](NC(=O)[C@H](C)NC)C(=O)N1CCC[C@H]1c1ncc(C(=O)Nc2ccccc2)o1)C(=O)N1CCC[C@H]1c1ncc(C(=O)Nc2ccccc2)o1 [Compound 39] | > 1 | > 1 | > 1 | 
CN[C@@H](C)C(=O)N[C@@H](CCCCCC[C@H](NC(=O)[C@H](C)NC)C(=O)N1CCC[C@H]1CNC(=O)Cc1ccccc1)C(=O)N1CCC[C@H]1CNC(=O)Cc1ccccc1 [Compound 77] | > 1 | > 1 | > 1 | 
CN[C@@H](C)C(=O)N[C@H](C(=O)N[C@@H](CCNC(=O)c1ccc(CCc2ccc(C(=O)N[C@@H]3C[C@@H](C(=O)N[C@@H]4CCCc5ccccc54)N(C(=O)[C@@H](NC(=O)[C@H](C)NC)C(C)(C)C)C3)cc2)cc1)C(=O)NC(C)C(C)C)C(C)C (stereo partly drawn) [Compound 201] | > 1 | 0.027 | 0.057 | 
CN[C@@H](C)C(=O)N[C@H](C(=O)N1C[C@@H](NC(=O)c2cccc(C(=O)N[C@H]3C[C@@H](C(=O)NCCc4ccc(O)cc4)N(C(=O)[C@@H](NC(=O)[C@H](C)NC)C(C)(C)C)C3)c2)C[C@H]1C(=O)NCCc1ccc(O)cc1)C(C)(C)C [Compound 3] | > 1 | 0.5 | 0.42 | 
CN[C@@H](C)C(=O)N[C@H](C(=O)N1C[C@@H](NC(=O)c2cccc(C(=O)N[C@H]3C[C@@H](C(=O)NC4CCCc5c(OC)cccc54)N(C(=O)[C@@H](NC(=O)[C@H](C)NC)C(C)(C)C)C3)c2)C[C@H]1C(=O)NC1CCCc2c(OC)cccc21)C(C)(C)C (single isomer, unassigned) [Compound 46] | > 1 | 0.048 | 0.014 | 
CN[C@@H](C)C(=O)N[C@H](C(=O)N1CCC[C@H]1C(=O)N[C@H]1c2ccccc2C[C@@H]1NC(=O)CCCCC(=O)N[C@H]1Cc2ccccc2[C@@H]1NC(=O)[C@@H]1CCCN1C(=O)[C@@H](NC(=O)[C@H](C)NC)C(C)(C)C)C(C)(C)C [Compound 123] | > 1 | 0.069 | 0.067 | 
